These results are taken from US10508085B2, “Compounds and methods for IDO and TDO modulation, and indications therefor” (Plexxikon Inc., priority 2016, dated 2019).

What is called IC50 is the concentration that inhibits the measured activity by half.

A value given as a limit tells only on which side of the number the result lay.

Assay [1] deals with T1, Human Indoleamine 2,3-dioxygenase (IDO) (Homo sapiens, UniProt P14902).
T1 construct: His tag (N); made in house; host or cells: E. coli
The experiment in a line: Human IDO enzymatic assay (kynurenine level). The class given is biochemical. The note with it: 6 nM IDO, 10 μM L-Trp; geometric mean; read-out: IDO1 GMean: IC50 (μM) (Biochemical Assay). The method, boiled down:
(§1)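 N-terminally His-tagged enzymes expressed in E. coli were run in 50 mM sodium phosphate pH 6.5 with 10 mM ascorbate, catalase and Tween 20. IDO: 6 nM enzyme, 10 μM L-Trp, 5 μM methylene blue, 20 min RT. TDO: 1 nM enzyme, 350 μM L-Trp, 0.4 μM methylene blue, 70 min RT.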

The target of assay [2] is T2, Human Tryptophan 2,3-dioxygenase (TDO) (Homo sapiens, UniProt P48775).
T2 construct: His tag (N); made in house; host or cells: E. coli
T2 sequence (P48775 whole entry): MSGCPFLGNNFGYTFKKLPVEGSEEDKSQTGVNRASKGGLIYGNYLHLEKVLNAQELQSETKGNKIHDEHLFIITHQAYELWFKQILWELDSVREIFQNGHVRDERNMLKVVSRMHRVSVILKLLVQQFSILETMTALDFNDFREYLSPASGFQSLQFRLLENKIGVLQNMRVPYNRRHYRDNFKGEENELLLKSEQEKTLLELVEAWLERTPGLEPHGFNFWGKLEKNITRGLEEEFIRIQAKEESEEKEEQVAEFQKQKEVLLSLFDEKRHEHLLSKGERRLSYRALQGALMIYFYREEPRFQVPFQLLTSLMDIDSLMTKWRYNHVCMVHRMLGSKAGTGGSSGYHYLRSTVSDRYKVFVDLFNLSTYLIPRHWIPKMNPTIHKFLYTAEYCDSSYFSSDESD
The experiment in a line: Human TDO enzymatic assay (kynurenine level). The class given is biochemical. To be noted: 1 nM TDO, 350 μM L-Trp; geometric mean; read-out: TDO GMean: IC50 (μM) (Biochemical Assay). The method, boiled down:
as §1

Assay [3] addresses T3, human IDO (IDO1-expressing HEK293 cells) (Homo sapiens, UniProt P14902).
T3 construct: expressed in transfected cells
The assay can be described thus: Cell based kynurenine assay, IDO1-expressing HEK293 cell clones. To be noted: IDO1-expressing HEK293 cells, 24 hours incubation; geometric mean; read-out: HEK293 IDO1 Kynurenine GMean IC50 (μM) (Cellular Assay). The method, boiled down:
(§2)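 HEK293 stable clones (hIDO1 or hTDO, CMV-driven; G418-selected); 2.5×10^4 cells/well; compound serial dilution, 24 h, 37 °C, 5% CO2; supernatant kynurenine; IC50 by nonlinear fit.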

Assay [4] deals with T4, human TDO (TDO-expressing HEK293 cells) (Homo sapiens, UniProt P48775).
T4 construct: expressed in transfected cells
T4 sequence (P48775 whole entry): as above
The experiment in a line: Cell based kynurenine assay, TDO-expressing HEK293 cell clones. The note with it: TDO-expressing HEK293 cells, 24 hours incubation; geometric mean; read-out: HEK293 TDO Kynurenine GMean IC50 (μM) (Cellular Assay). The gist of the method:
as §2

T3 sequence (P14902 whole entry): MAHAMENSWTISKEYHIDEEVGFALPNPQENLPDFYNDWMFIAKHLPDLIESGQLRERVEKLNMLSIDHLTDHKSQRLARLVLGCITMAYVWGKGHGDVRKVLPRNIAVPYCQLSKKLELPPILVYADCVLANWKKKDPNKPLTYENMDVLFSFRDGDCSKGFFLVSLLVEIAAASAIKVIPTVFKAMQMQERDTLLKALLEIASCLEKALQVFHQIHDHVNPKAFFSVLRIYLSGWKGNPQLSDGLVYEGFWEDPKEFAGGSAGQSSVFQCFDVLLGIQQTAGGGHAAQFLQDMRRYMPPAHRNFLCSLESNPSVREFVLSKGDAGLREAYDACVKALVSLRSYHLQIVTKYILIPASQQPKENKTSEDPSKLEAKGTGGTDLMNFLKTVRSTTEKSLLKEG
T1 sequence (P14902 whole entry): as above

Turning to `CCCNC(=O)N1CCC(C(C)(C)C(O)c2cc(Cl)cc3cn[nH]c23)CC1` (stereo not drawn) [Compound P-0355, 4-(1-(5-chloro-1H-indazol-7-yl)-1-hydroxy-2-methylpropan-2-yl)-N-propylpiperidine-1-carboxamide], the IC50 in assay [1], in assay [2], in assay [3] and in assay [4] was 0.0001 to 10 µM throughout.

As to `CC(C)(C)NC(=O)N1CCC(C(C)(C)C(O)c2cc(Cl)cc3cn[nH]c23)CC1` (stereo not drawn) [Compound P-0356, N-(tert-butyl)-4-(1-(5-chloro-1H-indazol-7-yl)-1-hydroxy-2-methylpropan-2-yl)piperidine-1-carboxamide], the concentration for half-maximal inhibition (IC50) in assay [1], in assay [2], in assay [3] and in assay [4] was 0.0001 to 10 µM throughout.

Turning to `COCCCNC(=O)N1CCC(C(C)(C)C(O)c2cc(Cl)cc3cn[nH]c23)CC1` (stereo not drawn) [Compound P-0357, 4-(1-(5-chloro-1H-indazol-7-yl)-1-hydroxy-2-methyipropan-2-yl)-N-(3-methoxypropyl) piperidine-1-carboxamide], the IC50 in assay [1], in assay [2], in assay [3] and in assay [4] was 0.0001 to 10 µM each time.

Turning to `CC(C)(C1CCN(C(=O)Nc2cccnc2)CC1)C(O)c1cc(Cl)cc2cn[nH]c12` (stereo not drawn) [Compound P-0358, 4-(1-(5-chloro-1H-indazol-7-yl)-1-hydroxy-2-methylpropan-2-yl)-N-(pyridin-3-yl)piperidine-1-carboxamide], the IC50 in assay [1], in assay [2], in assay [3] and in assay [4] was 0.0001 to 10 µM in each case.

`CC(C)(C1CCN(C(=O)Nc2cccc(F)c2)CC1)C(O)c1cc(Cl)cc2cn[nH]c12` (stereo not drawn) [Compound P-0359, 4-(1-(5-chloro-1H-indazol-7-yl)-1-hydroxy-2-methylpropan-2-yl)-N-(3-fluorophenyl) piperidine-1-carboxamide]: the IC50 in assay [1], in assay [2], in assay [3] and in assay [4] was 0.0001 to 10 µM each time.

Regarding `CC(C)(C1CCN(C(=O)Nc2cccc(C#N)c2)CC1)C(O)c1cc(Cl)cc2cn[nH]c12` (stereo not drawn) [Compound P-0360, 4-(1-(5-chloro-1H-indazol-7-yl)-1-hydroxy-2-methylpropan-2-yl)-N-(3-cyanophenyl) piperidine-1-carboxamide], the IC50 in assay [1], in assay [2], in assay [3] and in assay [4] was 0.0001 to 10 µM throughout.

Consider `CC(C)(C1CCN(C(=O)Nc2ccc(Cl)cc2)CC1)C(O)c1cc(Cl)cc2cn[nH]c12` (stereo not drawn) [Compound P-0361, 4-(1-(5-chloro-1H-indazol-7-yl)-1-hydroxy-2-methylpropan-2-yl)-N-(4-chlorophenyl) piperidine-1-carboxamide], for which the IC50 in assay [1], in assay [2], in assay [3] and in assay [4] was 0.0001 to 10 µM in each case.

`CC(C)(C1CCN(C(=O)c2cccnc2)CC1)C(O)c1cc(Cl)cc2cn[nH]c12` (stereo not drawn) [Compound P-0362, (4-(1-(5-chloro-1H-indazol-7-yl)-1-hydroxy-2-methylpropan-2-yl)piperidin-1-yl)(pyridin-3-yl)methanone]: the IC50 in assay [1], in assay [2], in assay [3] and in assay [4] was 0.0001 to 10 µM each time.

Turning to `CC(C)(C1CCN(C(=O)c2ccc(C(F)(F)F)nc2)CC1)C(O)c1cc(Cl)cc2cn[nH]c12` (stereo not drawn) [Compound P-0363, (4-(1-(5-chloro-1H-indazol-7-yl)-1-hydroxy-2-methylpropan-2-yl)piperidin-1-yl)(6-(trifluoromethyl)pyridin-3-yl)methanone], the IC50 in assay [1], in assay [2], in assay [3] and in assay [4] was 0.0001 to 10 µM in each case.

As for `CC(C)(C1CCN(C(=O)c2ccccc2F)CC1)C(O)c1cc(Cl)cc2cn[nH]c12` (stereo not drawn) [Compound P-0364, (4-(1-(5-chloro-1H-indazol-7-yl)-1-hydroxy-2-methylpropan-2-yl)piperidin-1-yl)(2-fluorophenyl) methanone], the IC50 in assay [1], in assay [2], in assay [3] and in assay [4] was 0.0001 to 10 µM in each case.

In the case of `CC(C)(C1CCN(C(=O)c2ccccn2)CC1)C(O)c1cc(Cl)cc2cn[nH]c12` (stereo not drawn) [Compound P-0365, (4-(1-(5-chloro-1H-indazol-7-yl)-1-hydroxy-2-methylpropan-2-yl)piperidin-1-yl)(pyridin-2-yl)methanone], the IC50 in assay [1], in assay [2], in assay [3] and in assay [4] was 0.0001 to 10 µM in each case.

Consider `CC(C)(C1CCN(C(=O)c2ccccc2C(F)(F)F)CC1)C(O)c1cc(Cl)cc2cn[nH]c12` (stereo not drawn) [Compound P-0366, (4-(1-(5-chloro-1H-indazol-7-yl)-1-hydroxy-2-methylpropan-2-yl)piperidin-1-yl)(2-(trifluoromethyl)phenyl)methanone], for which the IC50 in assay [1], in assay [2], in assay [3] and in assay [4] was 0.0001 to 10 µM each time.

Consider `CC(C)(C1CCN(C(=O)c2ccc(N3CCOCC3)nc2)CC1)C(O)c1cc(Cl)cc2cn[nH]c12` (stereo not drawn) [Compound P-0367, (4-(1-(5-chloro-1H-indazol-7-yl)-1-hydroxy-2-methylpropan-2-yl)piperidin-1-yl)(6-morpholinopyridin-3-yl)methanone], for which the IC50 in assay [1], in assay [2], in assay [3] and in assay [4] was 0.0001 to 10 µM in each case.

In the case of `CC(C)(C1CCN(C(=O)c2ccccc2Cl)CC1)C(O)c1cc(Cl)cc2cn[nH]c12` (stereo not drawn) [Compound P-0368, (4-(1-(5-chloro-1H-indazol-7-yl)-1-hydroxy-2-methylpropan-2-yl)piperidin-1-yl)(2-chlorophenyl) methanone], the IC50 in assay [1], in assay [2], in assay [3] and in assay [4] was 0.0001 to 10 µM each time.

As to `CC(C)(C1CCN(C(=O)c2c(F)cccc2Cl)CC1)C(O)c1cc(Cl)cc2cn[nH]c12` (stereo not drawn) [Compound P-0369, (4-(1-(5-chloro-1H-indazol-7-yl)-1-hydroxy-2-methylpropan-2-yl)piperidin-1-yl)(2-chloro-6-fluorophenyl) methanone], the IC50 in assay [1], in assay [2], in assay [3] and in assay [4] was 0.0001 to 10 µM each time.

Regarding `CC(C)(C)OC(=O)N1CCC(C(C)(C)C(O)c2c(F)c(Cl)cc3cn[nH]c23)CC1` (stereo not drawn) [Compound P-0370, tert-butyl 4-(1-(5-chloro-6-fluoro-1H-indazol-7-yl)-1-hydroxy-2-methylpropan-2-yl)piperidine-1-carboxylate], the IC50 in assay [1], in assay [2], in assay [3] and in assay [4] was 0.0001 to 10 µM each time.

With `OC1(c2cc(Cl)cc3[nH]ncc23)CC2(CCCCC2)C1` [Compound P-0371, 2-(6-chloro-1H-indazol-4-yl)spiro[3.5] nonan-2-ol], the IC50 in assay [1] is 10 to 100 µM; in assay [2], 0.0001 to 10 µM; in assay [3], more than 10 µM; in assay [4], 0.0001 to 10 µM.

Turning to `OC1(c2cc(Cl)cc3[nH]ncc23)CC2(CCOCC2)C1` [Compound P-0372, 2-(6-chloro-1H-indazol-4-yl)-7-oxaspiro[3.5] nonan-2-ol], the IC50 in assay [1] is more than 200 µM; in assay [2] it was 0.0001 to 10 µM; in assay [3], 0.0001 to 10 µM; in assay [4], more than 10 µM.

Turning to `C[C@@H](NC(=O)N1CCC(C(C)(C)C(O)c2cc(Cl)cc3cn[nH]c23)CC1)c1ccccc1` (stereo partly drawn) [Compound P-0373, 4-(1-(5-chloro-1H-indazol-7-yl)-1-hydroxy-2-methylpropan-2-yl)-N-((R)-1-phenylethyl) piperidine-1-carboxamide], the IC50 in assay [1], in assay [2], in assay [3] and in assay [4] was 0.0001 to 10 µM in each case.

On to `CCC(=O)N1CCC(C(F)(F)C(O)c2c(F)c(Cl)cc3cn[nH]c23)CC1` (stereo not drawn) [Compound P-0374, 1-(4-(2-(5-chloro-6-fluoro-1H-indazol-7-yl)-1,1-difluoro-2-hydroxyethyl)piperidin-1-yl) propan-1-one], for which the IC50 in assay [1], in assay [2], in assay [3] and in assay [4] was 0.0001 to 10 µM in each case.

Regarding `CC(C)CC(=O)N1CCC(C(F)(F)C(O)c2c(F)c(Cl)cc3cn[nH]c23)CC1` (stereo not drawn) [Compound P-0375, 1-(4-(2-(5-chloro-6-fluoro-1H-indazol-7-yl)-1,1-difluoro-2-hydroxyethyl)piperidin-1-yl)-3-methylbutan-1-one], the IC50 in assay [1], in assay [2], in assay [3] and in assay [4] was 0.0001 to 10 µM in each case.
